Where “and” joins values, the source holds several entries; their conditions need not be identical. Equal entries are not always repeated.
Experiments:
[1] = system: MCF-7 human breast tumor; test: MCF-7 Human Breast Tumor Xenograft Model; assay type: in vivo, nude mice; conditions: in combination with taxotere; compound Days 1, 2, 3, 4, and 7
Description: Female nude mice (˜20 g) were implanted s.c. with 21-day release estrogen (0.25 mg) pellets 24 hours prior to the s.c. implantation with MCF-7 tumor fragments (harvested from s.c. tumors in nude mice hosts). The study then proceeded as described for the HT-29 model, using taxotere as the standard chemotherapy agent.
In this model unless otherwise noted for the individual study, the novel compound was injected via the intraperitoneal route daily on Days 1-5, inclusive (qd×5); taxotere was administered intravenously on Days 1, 3 and 5 (qod×3).
This study considered the effects of t-butyl-phenylahistin in the MCF-7 human breast tumor xenograft model. The doses of the compound were administered on Days 1, 2, 3, 4, and 7; Taxotere was administered on Days 1, 3 and 7.

[2] = system: HL-60 (Mitoxantrone-Sensitive) human acute promyelocytic leukemia cell line; test: Drug resistant cell line pair, cytotoxicity; assay type: cell-based; conditions: HL-60 Sensitive
Source text: 2) Human Acute Promyelocytic Leukemia Cell Line Pair: HL-60 (Mitoxantrone-Sensitive) and HL-60/MX-2 (Mitoxantrone-Resistant)
This cell line is considered to have atypical drug resistance properties with altered topoisomerase II catalytic activity without overexpression of P-glycoprotein.

[3] = system: Jurkat cells
[4] = system: Caspase-3 in Jurkat cells; test: Activation of the caspase cascade; assay type: cell-based
Source text: Several enzymes in the caspase cascade are activated during apoptosis, including Caspase-3, -8 and-9. The activity of Caspase-3 was monitored in Jurkat cells following treatment with t-butyl-phenylahistin.

[5] = system: HuVEC monolayer; test: HuVEC monolayer permeability to FITC-Dextran; assay type: cell-based, human
Source text: This vascular collapse is preceded by a rapid induction of vascular cell permeability initially to electrolytes and soon after to large molecules. The enhanced permeability of HuVEC cells to a fluorescent-labeled dextran is used as a proxy assay for vascular collapse.

[6] = system: T. rubrum isolate #1; test: Antifungal susceptibility testing, broth dilution (NCCLS M38-A); assay type: cell-based, Trichophyton rubrum; conditions: dermatophytes
Description: Antifungal susceptibility testing was accomplished according to the methods outlined in the National Committee for Clinical Laboratory Standards, M38-A “Reference Method for Broth Dilution Antifungal Susceptibility Testing of Conidium-Forming Filamentous Fungi; Approved Standard.” This includes testing in RPMI-1640 with glutamine and without bicarbonate, an inoculum size of 0.4-5×10^4, and incubation at 30 or 35° C. for 48 hours. […] Drug concentrations were 0.03-16 μg/ml for the investigational compounds, 0.015-8 μg/ml for itraconazole and griseofulvin.
The minimum lethal concentration (MLC) was determined by plating […] from the MIC concentration and each concentration above the MIC. […] When a MIC was obtained, a minimum fungicidal concentration (MFC) was determined to assess the fungistatic/fungicidal nature of the compound. […] The compound is scored as fungistatic if the cells are able to resume growth and fungicidal if no regrowth is possible because the compound had killed the organisms.

[7] = system: HL-60/MX-2 (Mitoxantrone-Resistant) human acute promyelocytic leukemia cell line; test: Drug resistant cell line pair, cytotoxicity; assay type: cell-based; conditions: HL-60 Resistant
Source text: HL-60 (Mitoxantrone-Sensitive) and HL-60/MX-2 (Mitoxantrone-Resistant) This cell line is considered to have atypical drug resistance properties with altered topoisomerase II catalytic activity without overexpression of P-glycoprotein.

[8] = system: HT-29 human colon tumor; test: HT-29 Human Colon Tumor Xenograft Model; assay type: in vivo, nude mice
Description: Animals used were (exceptions are indicated for individual studies): female nude mice (nu/nu) between 5 and 6 weeks of age (˜20 g, Harlan); group size was 9-10 mice per group unless otherwise indicated. The selected novel compound was administered as monotherapy via the intraperitoneal (i.p.) route at the doses indicated for the individual study; for the combination studies the selected reference chemotherapy agents were injected 15-30 min prior to the compound. Vehicles used in these studies were: 12.5% DMSO, 5% Cremaphor and 82.5% peanut oil for the selected novel compounds; (1:3) Polysorbate 80:13% ethanol for taxotere; […] Saline dilutions are used to achieve the injection concentrations used for the reference compounds. Animals were implanted subcutaneously (s.c.) by trocar with fragments of HT-29 tumors harvested from s.c. growing tumors in nude mice hosts. […] CPT-11 was administered intraperitoneally on days 1, 8 and 15 (qw×3).

[9] = system: CCD-27sk Fibroblast (normal human fibroblast); test: Tumor Panel Screen, Resazurin cytotoxicity assay; assay type: cell-based
Source text: (§1) The following cell lines (source in parentheses) were used: HT29 (human colon tumor; ATCC; HTB-38), PC3 (human prostate tumor; ATCC; CRL-1435), MDA-MB-231 (human breast tumor; ATCC; HTB-26), NCI-H292 (human non-small cell lung tumor; ATCC; CRL-1848), OVCAR-3 (human ovarian tumor; ATCC; HTB-161), B16-F10 (murine melanoma; ATCC; CRL-6475) and CCD-27 sk (normal human fibroblast; ATCC; CRL-1475). Cells were maintained at subconfluent densities in their respective culture media.
(§2) Cytotoxicity assays were performed as described above in Example 4, using Resazurin fluorescence as an indicator of cell viability.

[10] = system: PC-3 Prostate (human prostate tumor); test: Tumor Panel Screen, Resazurin cytotoxicity assay; assay type: cell-based
Source text: as §1, §2

[11] = system: OVCAR-3 Ovary (human ovarian tumor); test: Tumor Panel Screen, Resazurin cytotoxicity assay; assay type: cell-based
Source text: as §1, §2

[12] = system: B16-F10 Melanoma (murine melanoma); test: Tumor Panel Screen, Resazurin cytotoxicity assay; assay type: cell-based
Source text: as §1, §2

[13] = system: MDA-MB-231 Breast (human breast tumor); test: Tumor Panel Screen, Resazurin cytotoxicity assay; assay type: cell-based
Source text: as §1, §2

[14] = system: NCI-H292 Lung (human non-small cell lung tumor); test: Tumor Panel Screen, Resazurin cytotoxicity assay; assay type: cell-based
Source text: as §1, §2

[15] = system: HT-29 Colon (human colon tumor); test: Tumor Panel Screen, Resazurin cytotoxicity assay; assay type: cell-based
Source text: as §1, §2

[16] = system: tubulin in Human umbilical vein endothelial cells (HuVEC); test: Action on microtubule function, staining for α-tubulin; assay type: cell-based; conditions: 2 μM, thirty minutes exposure
[17] = system: MES-SA (Taxol Sensitive) human uterine sarcoma tumor cell line; test: Drug resistant cell line pair, cytotoxicity; assay type: cell-based
Source text: (§3) MES-SA (Taxol Sensitive) and MES-SA DX (Taxol Resistant). This cell line expresses elevated mdr-1 mRNA and P-glycoprotein (an extrusion pump mechanism). Pretreatment with cyclosporin-A (CsA) blocks P-glycoprotein and reinstates activity in the resistant cell line for those compounds for which the resistance is due to elevated P-glycoprotein.

[18] = system: MES-SA DX (Taxol Resistant) human uterine sarcoma tumor cell line; test: Drug resistant cell line pair, cytotoxicity; assay type: cell-based; conditions: MES-SA DX Resistant
Source text: as §3

[19] = system: DU-145 human prostate tumor; test: DU-145 Human Prostate Tumor Xenograft Model; assay type: in vivo, nude mice; conditions: alone and in combination with taxotere
Description: Male mice were implanted s.c. by trocar with fragments of DU-145 tumors harvested from s.c. growing tumors in nude male mice hosts. When the tumors reached ˜5 mm×5 mm ( at about 13-17 days) the animals were matched into treatment and control groups. The remainder of the study proceeded as for the HT-29 model, using taxotere as the standard chemotherapy agent.
In this model unless otherwise noted for the individual study, test compound was administered via the intraperitoneal route on Days 1, 3, 5, 8 and 11 (q3d×5); taxotere was administered intravenously on Days 1, 3 and 5 (q2d×3).
The study involved an assessment of t-butyl-phenyalhistin alone and in combination with taxotere.

CC(C)(C)c1[nH]cnc1/C=C1\NC(=O)[C@H](Cc2ccccc2)NC1=O [t-butyl-phenylahistin]
effect on estimated tumor growth [1]: significant potentiation of taxotere
IC50 [2]: 0.255 µM
IC50 [3]: 0.165 µM
caspase-3 activation [4]: activated in a dose-dependent manner
time to induction of HuVEC monolayer permeability [5]: ≤ 1 h
HuVEC monolayer permeability ([5]; FITC-Dextran): induced significant HuVEC monolayer permeability
potency compared to griseofulvin [6]: at least was equivalent in potency
IC50 [7]: 0.175 µM
Comments ([8]; combination with CPT-11): Synergy
NPI-Compound Result TGI % ([8]; monotherapy 30 mg/kg ip q3dx5, study 2139): No Effect
Exceed NCI Criterion (TGI 58%) ([8]; study 2139): Combination
Combination Results TGI % ([8]; t-butyl-phenylahistin 30 mg/kg ip q3dx5 + CPT-11 100 ip qwx3, p < 0.05 vs Control and vs CPT-11 Alone): 77.7%
% Cytotoxicity, Mean [9]: 45%
IC50 [9]: > 20 µM
% Cytotoxicity, Mean [10]: 59.5%
IC50 [10]: 0.174 µM
% Cytotoxicity, Mean [11]: 37%
IC50 [11]: > 20 µM
% Cytotoxicity, Mean [12]: 74%
IC50 [12]: 0.736 µM
% Cytotoxicity, Mean [13]: 65.5%
IC50 [13]: 0.387 µM
% Cytotoxicity, Mean [14]: 65%
IC50 [14]: 0.384 µM
% Cytotoxicity, Mean [15]: 88%
IC50 [15]: 0.42 µM
microtubule depolymerization [16]: induced microtubule depolymerization
IC50 ([17]; CsA Pretreat): 0.162 µM
IC50 ([17]; No CsA): 0.144 µM and 0.122 µM
IC50 ([18]; CsA Pretreat): 0.622 µM
IC50 ([18]; No CsA): 0.825 µM and 0.694 µM
tumor growth inhibition indices (excised tumor weights) [19]: marked inhibition of tumor growth
